In ChEMBL document CHEMBL4251622, “Design, synthesis, and biological evaluation of polo-like kinase 1/eukaryotic elongation factor 2 kinase (PLK1/EEF2K) dual inhibitors for regulating breast cancer cells apoptosis and autophagy” (Eur J Med Chem, 2018):

Columns and labels:
[1] = biological target: TGF-beta receptor type-1 (Homo sapiens) (UniProt P36897); assay: Inhibition of wild-type human partial length TGFBR1 (D179 to M503 residues) expressed in bacterial expression system assessed as residual activity at 1 uM by Kinomescan method relative to control
[2] = test system: BT-483; assay: Effect on total PLK1 protein expression in human BT-483 cells at 5 to 10 uM by Western blot analysis; assay type: ADME, cell-based; settings: bt-483, 10 µM
[3] = biological target: ALK tyrosine kinase receptor (Homo sapiens) (UniProt Q9UM73); assay: Inhibition of wild-type human partial length ALK (I1088 to E1409 residues) expressed in mammalian expression system assessed as residual activity at 1 uM by Kinomescan method relative to control
[4] = biological target: Bone morphogenetic protein receptor type-2 (Homo sapiens) (UniProt Q13873); assay: Inhibition of wild-type human partial length BMPR2 (R179 to Q526 residues) expressed in mammalian expression system assessed as residual activity at 1 uM by Kinomescan method relative to control
Chain of Bone morphogenetic protein receptor type-2 (Homo sapiens) (Q13873 whole entry, the tested form may be a part): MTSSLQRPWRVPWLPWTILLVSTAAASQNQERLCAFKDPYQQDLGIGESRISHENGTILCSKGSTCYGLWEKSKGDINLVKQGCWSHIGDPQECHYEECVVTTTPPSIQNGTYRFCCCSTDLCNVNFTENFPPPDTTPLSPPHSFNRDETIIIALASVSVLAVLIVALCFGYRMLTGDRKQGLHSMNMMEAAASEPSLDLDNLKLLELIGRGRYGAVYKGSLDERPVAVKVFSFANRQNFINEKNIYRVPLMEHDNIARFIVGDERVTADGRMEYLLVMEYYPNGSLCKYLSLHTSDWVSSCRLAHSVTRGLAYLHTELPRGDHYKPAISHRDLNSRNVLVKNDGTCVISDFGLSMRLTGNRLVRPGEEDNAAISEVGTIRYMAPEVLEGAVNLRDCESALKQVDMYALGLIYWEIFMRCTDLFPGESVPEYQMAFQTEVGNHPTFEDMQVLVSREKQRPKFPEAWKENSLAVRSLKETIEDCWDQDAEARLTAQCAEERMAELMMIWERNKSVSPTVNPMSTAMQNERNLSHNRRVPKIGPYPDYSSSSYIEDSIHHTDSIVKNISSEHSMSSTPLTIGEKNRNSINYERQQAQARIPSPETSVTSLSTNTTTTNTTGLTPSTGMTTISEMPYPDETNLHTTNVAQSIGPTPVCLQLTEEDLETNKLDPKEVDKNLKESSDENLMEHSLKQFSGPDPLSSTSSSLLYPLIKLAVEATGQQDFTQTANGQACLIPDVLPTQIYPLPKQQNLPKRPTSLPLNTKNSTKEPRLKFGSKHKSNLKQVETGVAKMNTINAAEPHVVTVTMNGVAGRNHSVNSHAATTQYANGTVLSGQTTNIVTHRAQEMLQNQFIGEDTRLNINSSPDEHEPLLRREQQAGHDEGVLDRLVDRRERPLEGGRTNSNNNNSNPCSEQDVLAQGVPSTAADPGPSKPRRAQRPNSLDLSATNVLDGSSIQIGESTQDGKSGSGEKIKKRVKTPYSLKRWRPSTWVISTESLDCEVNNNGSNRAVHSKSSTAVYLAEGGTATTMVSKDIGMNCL

Chain of TGF-beta receptor type-1 (Homo sapiens) (P36897 whole entry, the tested form may be a part): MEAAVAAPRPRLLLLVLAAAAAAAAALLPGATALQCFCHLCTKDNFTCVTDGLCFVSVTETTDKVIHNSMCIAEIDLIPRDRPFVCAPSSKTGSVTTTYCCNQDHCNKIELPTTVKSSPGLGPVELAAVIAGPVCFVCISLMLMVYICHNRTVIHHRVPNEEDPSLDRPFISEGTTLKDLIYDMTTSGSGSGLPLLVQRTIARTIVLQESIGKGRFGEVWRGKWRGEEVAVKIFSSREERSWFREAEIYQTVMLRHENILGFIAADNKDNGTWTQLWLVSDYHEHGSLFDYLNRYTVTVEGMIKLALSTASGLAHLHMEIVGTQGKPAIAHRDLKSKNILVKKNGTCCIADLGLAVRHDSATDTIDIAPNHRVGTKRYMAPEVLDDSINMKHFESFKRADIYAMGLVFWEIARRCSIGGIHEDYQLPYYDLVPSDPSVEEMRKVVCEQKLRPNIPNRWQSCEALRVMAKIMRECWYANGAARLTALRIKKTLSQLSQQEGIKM
Chain of ALK tyrosine kinase receptor (Homo sapiens) (Q9UM73 19-1620 limits assumed): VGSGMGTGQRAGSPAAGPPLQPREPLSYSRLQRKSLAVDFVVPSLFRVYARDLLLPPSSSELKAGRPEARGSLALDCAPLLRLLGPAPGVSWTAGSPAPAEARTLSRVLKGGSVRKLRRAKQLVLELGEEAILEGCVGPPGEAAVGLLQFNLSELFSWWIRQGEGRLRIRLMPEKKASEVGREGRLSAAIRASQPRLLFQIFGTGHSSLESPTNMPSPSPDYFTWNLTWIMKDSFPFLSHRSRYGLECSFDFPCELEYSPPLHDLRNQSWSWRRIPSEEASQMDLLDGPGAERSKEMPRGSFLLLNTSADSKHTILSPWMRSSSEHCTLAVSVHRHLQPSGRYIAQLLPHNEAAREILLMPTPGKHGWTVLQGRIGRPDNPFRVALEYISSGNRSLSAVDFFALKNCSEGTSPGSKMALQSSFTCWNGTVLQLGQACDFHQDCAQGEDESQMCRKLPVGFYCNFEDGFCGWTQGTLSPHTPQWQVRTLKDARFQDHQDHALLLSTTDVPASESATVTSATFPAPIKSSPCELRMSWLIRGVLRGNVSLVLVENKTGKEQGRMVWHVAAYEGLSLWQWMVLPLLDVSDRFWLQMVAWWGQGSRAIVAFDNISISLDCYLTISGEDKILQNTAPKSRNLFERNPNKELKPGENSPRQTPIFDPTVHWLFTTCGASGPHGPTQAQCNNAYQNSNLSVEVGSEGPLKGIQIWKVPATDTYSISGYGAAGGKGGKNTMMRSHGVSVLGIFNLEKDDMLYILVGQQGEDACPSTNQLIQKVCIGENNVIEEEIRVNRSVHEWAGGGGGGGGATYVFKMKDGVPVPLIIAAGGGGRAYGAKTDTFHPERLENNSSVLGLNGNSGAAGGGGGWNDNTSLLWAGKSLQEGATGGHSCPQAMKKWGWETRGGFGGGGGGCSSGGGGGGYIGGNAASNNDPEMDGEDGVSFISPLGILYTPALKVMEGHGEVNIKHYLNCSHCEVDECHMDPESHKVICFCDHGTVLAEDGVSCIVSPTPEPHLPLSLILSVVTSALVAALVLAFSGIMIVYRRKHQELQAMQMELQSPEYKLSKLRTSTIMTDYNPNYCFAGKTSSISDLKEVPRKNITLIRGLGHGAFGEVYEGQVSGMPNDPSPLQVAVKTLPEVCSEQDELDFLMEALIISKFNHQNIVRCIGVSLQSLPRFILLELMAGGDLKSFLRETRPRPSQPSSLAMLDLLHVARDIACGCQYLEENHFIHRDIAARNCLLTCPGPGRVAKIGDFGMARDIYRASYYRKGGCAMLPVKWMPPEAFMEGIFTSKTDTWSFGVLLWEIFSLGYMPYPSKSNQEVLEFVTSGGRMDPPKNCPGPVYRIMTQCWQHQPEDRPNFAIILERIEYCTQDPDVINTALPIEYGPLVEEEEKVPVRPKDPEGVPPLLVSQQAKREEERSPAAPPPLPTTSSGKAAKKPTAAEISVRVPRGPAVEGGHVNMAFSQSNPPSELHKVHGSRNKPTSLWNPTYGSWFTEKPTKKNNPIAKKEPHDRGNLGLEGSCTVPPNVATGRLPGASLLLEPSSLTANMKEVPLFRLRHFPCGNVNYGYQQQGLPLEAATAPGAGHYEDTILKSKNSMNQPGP

Question: CCNc1cc(-c2ccc(NC(=O)Nc3cccc(Cl)c3)cc2C(F)(F)F)ccn1 was tested. Which Activity [1] did it give?
Answer: 86%

Question: What about the Activity [2] of the same compound?
Answer: Non-Toxic

Question: What about the Activity [3] of the same compound?
Answer: 88%

Question: And the Activity [4]?
Answer: 94%
